Results on 27 molecules are retold here after ChEMBL document CHEMBL1921705, “Thiophene inhibitors of PDE4: crystal structures show a second binding mode at the catalytic domain of PDE4D2” (Bioorg Med Chem Lett, 2011).

SMILES strings stand for the structures. Active and inactive are the calls of the source. The rule behind the calls is not given here.

Experiment [1] concerns UMR106. As to the kind of experiment: Inhibition of PDE4D2 in rat UMR106 cell lysates at 1 uM after 15 mins using [3H]cAMP by scintillation proximity assay. The class given is cell-free. A general note: SPA uses beads or plates that emit light when radiolabelled molecules are held near them.
For experiment [2], the target named is T1, 3',5'-cyclic-AMP phosphodiesterase 4D (Homo sapiens, UniProt Q08499). The experiment can be described thus: Inhibition of N-terminal 6His-tagged human recombinant PDE4D2 expressed in Escherichia coli BL21 (DE3) at 1 uM after 15 mins using [3H]cAMP by scintillation proximity assay.
The nature of experiment [3]: Inhibition of rat PDE4D2 in UMR106 cell lysates after 15 mins using [3H]cAMP by scintillation proximity assay. The format is cell-free.
Experiment [4] deals with UMR106. The experiment can be described thus: Inhibition of PDE4D2 in rat UMR106 cells coexpressing pCRE-luc assessed as activation of cREB protein at 10 uM after 4 hrs by measuring luciferase activity by luminescence assay. The class given is cell-based.
A short description of experiment [5]: Inhibition of PDE in rat UMR106 cells co-expressing CRE-luc assessed as PTH-induced cAMP accumulation by luciferase reporter gene assay. The class given is cell-based. (In general: Changes in cAMP serve as a functional read-out for many G protein-coupled receptors.)
The test system of experiment [6] is UMR106. The experiment can be described thus: Inhibition of PDE4D2 in rat UMR106 cells coexpressing pCRE-luc assessed as activation of cREB protein after 4 hrs by measuring luciferase activity by luminescence assay. The format is cell-based.
Experiment [7] deals with UMR106. As to the kind of experiment: Inhibition of PDE4D2 in rat PTHrP-stimulated UMR106 cells coexpressing pCRE-luc assessed as activation of cREB protein after 4 hrs by measuring luciferase activity by luminescence assay. The format is cell-based.
The target in experiment [8] is T1, 3',5'-cyclic-AMP phosphodiesterase 4D. The experiment can be described thus: Inhibition of human recombinant PDE4D2 overexpressed in Escherichia coli after 15 mins using [3H]cAMP by scintillation proximity assay.

T1 sequence (Q08499 whole entry): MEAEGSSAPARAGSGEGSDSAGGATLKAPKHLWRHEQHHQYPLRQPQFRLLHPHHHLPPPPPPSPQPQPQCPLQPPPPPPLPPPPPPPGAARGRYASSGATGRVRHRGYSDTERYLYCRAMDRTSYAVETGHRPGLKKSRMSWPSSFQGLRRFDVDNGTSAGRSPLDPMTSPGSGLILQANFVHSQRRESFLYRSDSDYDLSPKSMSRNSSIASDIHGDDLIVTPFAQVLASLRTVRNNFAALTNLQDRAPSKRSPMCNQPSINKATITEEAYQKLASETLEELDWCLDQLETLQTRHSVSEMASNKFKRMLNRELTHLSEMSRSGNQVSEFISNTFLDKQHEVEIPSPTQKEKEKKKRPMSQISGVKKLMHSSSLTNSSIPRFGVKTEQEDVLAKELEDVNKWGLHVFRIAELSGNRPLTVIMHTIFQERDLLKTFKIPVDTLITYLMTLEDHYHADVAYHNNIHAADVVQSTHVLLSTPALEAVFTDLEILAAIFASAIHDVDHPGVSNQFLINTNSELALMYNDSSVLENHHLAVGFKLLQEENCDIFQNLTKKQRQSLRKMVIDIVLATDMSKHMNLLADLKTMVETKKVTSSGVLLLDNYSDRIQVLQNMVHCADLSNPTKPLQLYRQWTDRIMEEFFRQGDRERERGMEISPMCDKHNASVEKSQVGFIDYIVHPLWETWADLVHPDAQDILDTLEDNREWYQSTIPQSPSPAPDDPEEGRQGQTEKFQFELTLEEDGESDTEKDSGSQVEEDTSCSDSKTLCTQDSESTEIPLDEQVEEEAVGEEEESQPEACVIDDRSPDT

In general, inhibition refers to the change of the read-out against control, counted positive when it falls. `N#Cc1c(NC(=O)Cc2ccccc2)sc2c1CCCC2`: the inhibition in experiment [1] came to 24%.
Consider `CCNC(=O)N1CCc2c(sc(NC(=O)Cc3ccccc3)c2C(=O)OCC)C1`, for which the inhibition in experiment [2] turned out to be 98%.
With `O=C(Cc1ccccn1)Nc1sc2c(c1C(=O)OC1CCCC1)CCN(C(=O)NCc1ccccc1)C2`, the inhibition in experiment [2] came to 65%.
By IC50 is commonly meant the concentration needed to halve the response being measured. Take `CCOC(=O)c1c(NC(=O)Cc2cccs2)sc2c1CCN(C(=O)OCC)C2`: the inhibition in experiment [2] was found to be 98%; in experiment [1] it was 70%. Besides, the IC50 in experiment [3] is 182 nM.
As for `CCNC(=O)N1CCc2c(sc(NC(=O)Cc3cccs3)c2C(=O)OC2CCCC2)C1`, the inhibition in experiment [2] was 88%.
Regarding `CCOC(=O)c1c(NC(=O)Cc2ccccc2)sc2c1CC(C)(C)OC2`, in experiment [4], the inhibition entry was “Active”.
As for `CCOC(=O)c1c(NC(=O)Cc2cccc(OC)c2)sc2c1CCN(C(=O)OCC)C2`, in experiment [1], the inhibition was found to be 9%.
On to `CCOC(=O)c1c(NC(=O)Cc2ccccc2)sc2c1CCC2`, for which, in experiment [4], the inhibition result was “Active”.
On to `CCOC(=O)c1c(NC(=O)Cc2ccc(S(C)(=O)=O)cc2)sc2c1CCN(C(=O)OCC)C2`, for which, in experiment [1], the inhibition was -4%.
Consider `CCOC(=O)c1c(NC(=O)Cc2cccs2)sc2c1CCCC2`, for which the inhibition entry in experiment [4] was “Active”.
Consider `COc1ccc(C2CNC(=O)C2)cc1OC1CCCC1` (stereo unspecified) [ROLIPRAM], for which the IC50 in experiment [5] amounted to 600 nM.
In the case of `CCOC(=O)c1c(NC(=O)Cc2ccccc2)sc2c1CCN(C(C)=O)C2`, the inhibition in experiment [1] came out at 50%. Besides, in experiment [3], the IC50 came to 1000 nM.
Regarding `CCOC(=O)c1c(NC(=O)c2cccc(S(=O)(=O)N3CCOCC3)c2)sc(C)c1C`, in experiment [4], the inhibition result is “Active”.
`CCOC(=O)c1c(NC(=O)Cc2ccccc2OC)sc2c1CCN(C(=O)OCC)C2`: the inhibition in experiment [1] was 37%.
In the case of `CCOC(=O)c1c(NC(=O)Cc2ccc(OC)cc2)sc2c1CCN(C(=O)OCC)C2`, the inhibition came out at 23% in experiment [2] and 26% in experiment [1].
With `CCOC(=O)N1CCc2c(sc(NC(=O)Cc3ccccc3)c2C(N)=O)C1`, the inhibition was -1% in experiment [2] and 18% in experiment [1].
As to `CCOC(=O)c1c(NC(=O)Cc2ccccc2)sc2c1CCN(C(=O)OC(C)(C)C)C2`, in experiment [2], the inhibition stood at 38%.
For `CCOC(=O)c1c(NCc2ccccc2)sc2c1CCN(C(=O)OCC)C2`, the inhibition in experiment [1] came out at 33%.
In the case of `CCOC(=O)c1c(NC(=O)Cc2ccccn2)sc2c1CCN(C(=O)OCC)C2`, the inhibition came out at 72% in experiment [2] and 73% in experiment [1]. Moreover, 80 nM corresponded to half-maximal inhibition in experiment [3] (IC50).
For the molecule `CCOC(=O)N1CCc2c(sc(NC(=O)Cc3ccccc3)c2C(=O)OC2CCCCC2)C1`, the inhibition in experiment [2] was found to be 61%.
In the case of `NC(=O)c1c(NC(=O)Cc2ccccc2)sc2c1CCCC2`, the inhibition in experiment [1] worked out at 15%.
As for `CCOC(=O)N1CCc2c(sc(NC(=O)Cc3cccs3)c2C(=O)OC2CCCC2)C1`, the inhibition in experiment [2] was 95%; in experiment [6], “Dose-dependent effect”; in experiment [7], “Dose-dependent effect”.
As to `CCOC(=O)c1c(NC(=O)CCc2ccccc2)sc2c1CCN(C(=O)OCC)C2`, the inhibition in experiment [1] turned out to be 22%.
As to `CCOC(=O)c1c(NC(=O)c2ccccc2)sc2c1CCN(C(=O)OCC)C2`, the inhibition in experiment [1] turned out to be 14%.
For `CCOC(=O)c1c(NC(=O)Cc2ccccc2)sc2c1CCNC2`, the inhibition in experiment [1] was 25%.
With `CCOC(=O)c1c(NC(=O)Cc2ccccc2)sc2c1CCCC2`, in experiment [2], the inhibition worked out at 68%. Also, the half-inhibitory concentration (IC50) in experiment [8] turned out to be 1500 nM. Moreover, the inhibition entry in experiment [4] is “Active”.
For `CCOC(=O)c1c(NC(=O)Cc2ccccc2)sc2c1CCN(C(=O)OCC)C2`, the inhibition in experiment [2] worked out at 86%; in experiment [1], 85%. Also, the 50% inhibitory concentration (IC50) in experiment [8] was 100 nM. Also, the inhibition result in experiment [4] was “Active”.
